Read-outs that look alike come from different tables or passages of the source.
Tested on: 134 cancer cell lines
Experiment: Cell viability assay (ATPlite, 72 hours), IC50 on cancer cell line panel

**Q.** Which results are given for Cn1cc(-c2cc3c(N4CCN(c5ncc([C@@](C)(N)c6ccc(F)cc6)cn5)CC4)ncnn3c2)cn1 [avapritinib]?
**A.** IC50 (HEC-6, read-out: IC50 in cell proliferation assay): 20.9 µM; IC50 (Homo sapiens, 769-P, read-out: IC50 in cell proliferation assay): 3 µM; IC50 (Homo sapiens, 786-0, read-out: IC50 in cell proliferation assay): 11.8 µM; IC50 (Homo sapiens, A 172, read-out: IC50 in cell proliferation assay): 5.91 µM; IC50 (Homo sapiens, A204, read-out: IC50 in cell proliferation assay): 0.171 µM; IC50 (Homo sapiens, A498, read-out: IC50 in cell proliferation assay): 15.4 µM; IC50 (Homo sapiens, A549, read-out: IC50 in cell proliferation assay): 20.5 µM; IC50 (Homo sapiens, A704, read-out: IC50 in cell proliferation assay): 22.7 µM; IC50 (Homo sapiens, A-375, read-out: IC50 in cell proliferation assay): 17.8 µM; IC50 (Homo sapiens, A-427, read-out: IC50 in cell proliferation assay): 8.02 µM; IC50 (Homo sapiens, ACHN, read-out: IC50 in cell proliferation assay): 14.8 µM; IC50 (Homo sapiens, AN3-CA, read-out: IC50 in cell proliferation assay): 18.1 µM; IC50 (Homo sapiens, ASPC1, read-out: IC50 in cell proliferation assay): > 31.6 µM; IC50 (Homo sapiens, AU565, read-out: IC50 in cell proliferation assay): 10.1 µM; IC50 (Homo sapiens, BT-20, read-out: IC50 in cell proliferation assay): 27.7 µM; IC50 (Homo sapiens, BT-474, read-out: IC50 in cell proliferation assay): 7.71 µM; IC50 (Homo sapiens, BT-549, read-out: IC50 in cell proliferation assay): 5.18 µM; IC50 (Homo sapiens, BXPC-3, read-out: IC50 in cell proliferation assay): 0.292 µM; IC50 (Homo sapiens, C-33-A, read-out: IC50 in cell proliferation assay): 4.64 µM; IC50 (Homo sapiens, CAL-27, read-out: IC50 in cell proliferation assay): 11 µM; IC50 (Homo sapiens, CCF-STTG1, read-out: IC50 in cell proliferation assay): 5.69 µM; IC50 (Homo sapiens, CCRF-CEM, read-out: IC50 in cell proliferation assay): 8.33 µM; IC50 (Homo sapiens, COLO 205, read-out: IC50 in cell proliferation assay): 10.7 µM; IC50 (Homo sapiens, COLO-829, read-out: IC50 in cell proliferation assay): 10.1 µM; IC50 (Homo sapiens, DLD-1, read-out: IC50 in cell proliferation assay): 15.2 µM; IC50 (Homo sapiens, DU-145, read-out: IC50 in cell proliferation assay): 9.13 µM; IC50 (Homo sapiens, DU-4475, read-out: IC50 in cell proliferation assay): 7.09 µM; IC50 (Homo sapiens, Daoy, read-out: IC50 in cell proliferation assay): 27.8 µM; IC50 (Homo sapiens, DoTc2-4510, read-out: IC50 in cell proliferation assay): 16.3 µM; IC50 (Homo sapiens, EOL1, read-out: IC50 in cell proliferation assay): 0.000567 µM; IC50 (Homo sapiens, FaDu, read-out: IC50 in cell proliferation assay): 9.3 µM; IC50 (Homo sapiens, G-361, read-out: IC50 in cell proliferation assay): 9.28 µM; IC50 (Homo sapiens, HCC827, read-out: IC50 in cell proliferation assay): 14 µM; IC50 (Homo sapiens, HCC4006, read-out: IC50 in cell proliferation assay): 8.01 µM; IC50 (Homo sapiens, HCT-15, read-out: IC50 in cell proliferation assay): 6.36 µM; IC50 (Homo sapiens, HCT-116, read-out: IC50 in cell proliferation assay): 8.76 µM; IC50 (Homo sapiens, HEC-1, read-out: IC50 in cell proliferation assay): 17 µM; IC50 (Homo sapiens, HEC-1B, read-out: IC50 in cell proliferation assay): 8.74 µM; IC50 (Homo sapiens, HL-60, read-out: IC50 in cell proliferation assay): 5.2 µM; IC50 (Homo sapiens, HT, read-out: IC50 in cell proliferation assay): 22.9 µM; IC50 (Homo sapiens, HT-1080, read-out: IC50 in cell proliferation assay): 9.14 µM; IC50 (Homo sapiens, Hs746T, read-out: IC50 in cell proliferation assay): 1.81 µM; IC50 (Homo sapiens, Hs-578T, read-out: IC50 in cell proliferation assay): 16.8 µM; IC50 (Homo sapiens, HuTu80, read-out: IC50 in cell proliferation assay): 5.13 µM; IC50 (Homo sapiens, J82, read-out: IC50 in cell proliferation assay): 24.4 µM; IC50 (Homo sapiens, Jurkat E6.1, read-out: IC50 in cell proliferation assay): 4.07 µM; IC50 (Homo sapiens, K562, read-out: IC50 in cell proliferation assay): 6.03 µM; IC50 (Homo sapiens, KATO III, read-out: IC50 in cell proliferation assay): 6.66 µM; IC50 (Homo sapiens, KG-1, read-out: IC50 in cell proliferation assay): 1.92 µM; IC50 (Homo sapiens, KLE, read-out: IC50 in cell proliferation assay): 5.61 µM; IC50 (Homo sapiens, KMS-11, read-out: IC50 in cell proliferation assay): 6.59 µM; IC50 (Homo sapiens, KU812, read-out: IC50 in cell proliferation assay): 3.11 µM; IC50 (Homo sapiens, Kasumi 1, read-out: IC50 in cell proliferation assay): 0.075 µM; IC50 (Homo sapiens, LC-2-ad, read-out: IC50 in cell proliferation assay): 4.91 µM; IC50 (Homo sapiens, LNCaP-Clone-FGC, read-out: IC50 in cell proliferation assay): 16 µM; IC50 (Homo sapiens, LS174T, read-out: IC50 in cell proliferation assay): 6.55 µM; IC50 (Homo sapiens, LS-411N, read-out: IC50 in cell proliferation assay): 10.8 µM; IC50 (Homo sapiens, LoVo, read-out: IC50 in cell proliferation assay): 6.42 µM; IC50 (Homo sapiens, MCF7, read-out: IC50 in cell proliferation assay): 17.3 µM; IC50 (Homo sapiens, MDA-MB-231, read-out: IC50 in cell proliferation assay): 8.5 µM; IC50 (Homo sapiens, MDA-MB-453, read-out: IC50 in cell proliferation assay): 1.08 µM; IC50 (Homo sapiens, MDA-MB-468, read-out: IC50 in cell proliferation assay): 12.6 µM

Reference: article PMC9516332 (Frontiers in Oncology, 2022)
